In PubChem BioAssay (NCI):
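Test compounds were applied to cells in 96-well plates for 48 hours at 5 doses. GI50 marks 50% less growth. The concentration for full growth arrest is given as TGI.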

Experiments:
Experiment in all cases: DTP human tumour cell line panel, 48 h
HCT-15 colon = test system: HCT-15 colon
CCRF-CEM leukemia = test system: CCRF-CEM leukemia
NCI-H226 lung = test system: NCI-H226 lung
SN12C renal = test system: SN12C renal
SK-MEL-2 melanoma = test system: SK-MEL-2 melanoma
OVCAR-4 ovarian = test system: OVCAR-4 ovarian
NCI-H460 lung = test system: NCI-H460 lung
MCF7 breast = test system: MCF7 breast
SW-620 colon = test system: SW-620 colon
TK-10 renal = test system: TK-10 renal
786-0 renal = test system: 786-0 renal
DU-145 prostate = test system: DU-145 prostate
HCC-2998 colon = test system: HCC-2998 colon
SK-OV-3 ovarian = test system: SK-OV-3 ovarian
MDA-MB-435 = test system: MDA-MB-435
SK-MEL-28 melanoma = test system: SK-MEL-28 melanoma
SK-MEL-5 melanoma = test system: SK-MEL-5 melanoma
NCI/ADR-RES ovarian = test system: NCI/ADR-RES ovarian
OVCAR-5 ovarian = test system: OVCAR-5 ovarian
HOP-62 NSCLC = test system: HOP-62 NSCLC
RPMI-8226 leukemia = test system: RPMI-8226 leukemia
U251 CNS = test system: U251 CNS
HOP-92 NSCLC = test system: HOP-92 NSCLC
MDA-MB-231 breast = test system: MDA-MB-231 breast
LOX IMVI melanoma = test system: LOX IMVI melanoma
ACHN renal = test system: ACHN renal
RXF 393 renal = test system: RXF 393 renal
MOLT-4 leukemia = test system: MOLT-4 leukemia
NCI-H522 lung = test system: NCI-H522 lung
OVCAR-8 ovarian = test system: OVCAR-8 ovarian
OVCAR-3 ovarian = test system: OVCAR-3 ovarian
SF-539 CNS = test system: SF-539 CNS
UO-31 renal = test system: UO-31 renal
A549 NSCLC = test system: A549 NSCLC
SF-268 CNS = test system: SF-268 CNS
EKVX NSCLC = test system: EKVX NSCLC
M14 melanoma = test system: M14 melanoma
KM12 colon = test system: KM12 colon
HL-60(TB) leukemia = test system: HL-60(TB) leukemia
A498 renal = test system: A498 renal
HCT-116 colon = test system: HCT-116 colon
IGROV1 ovarian = test system: IGROV1 ovarian
SR leukemia = test system: SR leukemia
SNB-19 CNS = test system: SNB-19 CNS
SF-295 CNS = test system: SF-295 CNS
HT29 colon = test system: HT29 colon
SNB-75 CNS = test system: SNB-75 CNS
UACC-257 melanoma = test system: UACC-257 melanoma
HS 578T breast = test system: HS 578T breast
CAKI-1 renal = test system: CAKI-1 renal
K-562 leukemia = test system: K-562 leukemia
NCI-H23 lung = test system: NCI-H23 lung
BT-549 breast = test system: BT-549 breast
UACC-62 melanoma = test system: UACC-62 melanoma
PC-3 prostate = test system: PC-3 prostate
MALME-3M melanoma = test system: MALME-3M melanoma
COLO 205 colon = test system: COLO 205 colon
T-47D breast = test system: T-47D breast

Work on `CCN(CC)c1ccc(CNc2cc(C)nc3ccc(OC)cc23)cc1` yielded a GI50 (HCT-15 colon) of 3.11 µM, a TGI (HCT-15 colon) of 10.8 µM and a GI50 (CCRF-CEM leukemia) of 2.78 µM. The TGI (CCRF-CEM leukemia) was 10.2 µM, the GI50 (NCI-H226 lung) was 3.12 µM and the TGI (NCI-H226 lung) was 14.4 µM. The GI50 (SN12C renal) was 5.33 µM, the TGI (SN12C renal) was 20.6 µM and the GI50 (SK-MEL-2 melanoma) was 1.83 µM. It also gave a TGI (SK-MEL-2 melanoma) of 3.56 µM, a GI50 (OVCAR-4 ovarian) of 5 µM and a TGI (OVCAR-4 ovarian) of 16.5 µM. For the same molecule, the GI50 (NCI-H460 lung) was 1.97 µM, the TGI (NCI-H460 lung) was 4.33 µM and the GI50 (MCF7 breast) was 1.7 µM. The TGI (MCF7 breast) was 3.53 µM, the GI50 (SW-620 colon) was 1.75 µM and the TGI (SW-620 colon) was 3.47 µM. The GI50 (TK-10 renal) was 1.92 µM, the TGI (TK-10 renal) was 4.64 µM and the GI50 (786-0 renal) was 2.01 µM. For the same molecule, the TGI (786-0 renal) was 4.29 µM, the GI50 (DU-145 prostate) was 6.17 µM and the TGI (DU-145 prostate) was 18.6 µM. The GI50 (HCC-2998 colon) was 1.77 µM, the TGI (HCC-2998 colon) was 3.32 µM and the GI50 (SK-OV-3 ovarian) was 10.3 µM. The TGI (SK-OV-3 ovarian) was 22 µM, the GI50 (MDA-MB-435) was 1.67 µM and the TGI (MDA-MB-435) was 3.38 µM. It also gave a GI50 (SK-MEL-28 melanoma) of 1.86 µM, a TGI (SK-MEL-28 melanoma) of 3.38 µM and a GI50 (SK-MEL-5 melanoma) of 1.3 µM. The TGI (SK-MEL-5 melanoma) was 2.72 µM, the GI50 (NCI/ADR-RES ovarian) was 3.08 µM and the TGI (NCI/ADR-RES ovarian) was 14.3 µM. The GI50 (OVCAR-5 ovarian) was 5.37 µM, the TGI (OVCAR-5 ovarian) was 18.6 µM and the GI50 (HOP-62 NSCLC) was 7.24 µM. For the same molecule, the TGI (HOP-62 NSCLC) was 21 µM, the GI50 (RPMI-8226 leukemia) was 1.71 µM and the TGI (RPMI-8226 leukemia) was 4.2 µM. For the same molecule, the GI50 (U251 CNS) was 2.04 µM, the TGI (U251 CNS) was 4.3 µM and the GI50 (HOP-92 NSCLC) was 2 µM. For the same molecule, the TGI (HOP-92 NSCLC) was 6.26 µM, the GI50 (MDA-MB-231 breast) was 2.46 µM and the TGI (MDA-MB-231 breast) was 6.81 µM. The GI50 (LOX IMVI melanoma) was 1.67 µM, the TGI (LOX IMVI melanoma) was 3.47 µM and the GI50 (ACHN renal) was 2.63 µM. For the same molecule, the TGI (ACHN renal) was 7.17 µM, the GI50 (RXF 393 renal) was 2.02 µM and the TGI (RXF 393 renal) was 3.87 µM. For the same molecule, the GI50 (MOLT-4 leukemia) was 3.16 µM, the TGI (MOLT-4 leukemia) was 9.69 µM and the GI50 (NCI-H522 lung) was 1.51 µM. The TGI (NCI-H522 lung) was 3.28 µM, the GI50 (OVCAR-8 ovarian) was 4.05 µM and the TGI (OVCAR-8 ovarian) was 15.9 µM. For the same molecule, the GI50 (OVCAR-3 ovarian) was 3.12 µM, the TGI (OVCAR-3 ovarian) was 12.8 µM and the GI50 (SF-539 CNS) was 2.22 µM. The TGI (SF-539 CNS) was 4.36 µM, the GI50 (UO-31 renal) was 1.75 µM and the TGI (UO-31 renal) was 6.23 µM. It also gave a GI50 (A549 NSCLC) of 6.41 µM, a TGI (A549 NSCLC) of 21.2 µM and a GI50 (SF-268 CNS) of 4.17 µM. For the same molecule, the TGI (SF-268 CNS) was 16.1 µM, the GI50 (EKVX NSCLC) was 3.14 µM and the TGI (EKVX NSCLC) was 15.3 µM. The GI50 (M14 melanoma) was 1.89 µM, the TGI (M14 melanoma) was 3.7 µM and the GI50 (KM12 colon) was 3.1 µM. For the same molecule, the TGI (KM12 colon) was 11.6 µM, the GI50 (HL-60(TB) leukemia) was 1.6 µM and the TGI (HL-60(TB) leukemia) was 4.23 µM. The GI50 (A498 renal) was 2.24 µM, the TGI (A498 renal) was 10.1 µM and the GI50 (HCT-116 colon) was 2.34 µM. The TGI (HCT-116 colon) was 7.76 µM, the GI50 (IGROV1 ovarian) was 4.05 µM and the TGI (IGROV1 ovarian) was 19.2 µM. The GI50 (SR leukemia) was 1.87 µM, the TGI (SR leukemia) was 4.56 µM and the GI50 (SNB-19 CNS) was 3.98 µM. It also gave a TGI (SNB-19 CNS) of 16.3 µM, a GI50 (SF-295 CNS) of 1.78 µM and a TGI (SF-295 CNS) of 3.89 µM. For the same molecule, the GI50 (HT29 colon) was 0.955 µM, the TGI (HT29 colon) was 3.59 µM and the GI50 (SNB-75 CNS) was 2.04 µM. The TGI (SNB-75 CNS) was 5.05 µM, the GI50 (UACC-257 melanoma) was 2.14 µM and the TGI (UACC-257 melanoma) was 4.53 µM. The GI50 (HS 578T breast) was 2.32 µM, the TGI (HS 578T breast) was 6.73 µM and the GI50 (CAKI-1 renal) was 1.89 µM. It also gave a TGI (CAKI-1 renal) of 10.5 µM, a GI50 (K-562 leukemia) of 1.37 µM and a TGI (K-562 leukemia) of 4.34 µM. For the same molecule, the GI50 (NCI-H23 lung) was 2.7 µM, the TGI (NCI-H23 lung) was 9.8 µM and the GI50 (BT-549 breast) was 3.22 µM. It also gave a TGI (BT-549 breast) of 10.7 µM, a GI50 (UACC-62 melanoma) of 1.72 µM and a TGI (UACC-62 melanoma) of 3.67 µM. The GI50 (PC-3 prostate) was 2.82 µM, the TGI (PC-3 prostate) was 13.1 µM and the GI50 (MALME-3M melanoma) was 1.8 µM. The TGI (MALME-3M melanoma) was 3.43 µM, the GI50 (COLO 205 colon) was 1.31 µM and the TGI (COLO 205 colon) was 2.76 µM. The GI50 (T-47D breast) was 1.96 µM and the TGI (T-47D breast) was 4.61 µM.
